The record followed here is BindingDB's records for doi:10.1007/bf02245606 (Janssen Research Foundation, 1996).

Experiment [1] deals with T1, 5-hydroxytryptamine receptor 1A (Rattus norvegicus, UniProt P19327).
T1 sequence (P19327 whole entry): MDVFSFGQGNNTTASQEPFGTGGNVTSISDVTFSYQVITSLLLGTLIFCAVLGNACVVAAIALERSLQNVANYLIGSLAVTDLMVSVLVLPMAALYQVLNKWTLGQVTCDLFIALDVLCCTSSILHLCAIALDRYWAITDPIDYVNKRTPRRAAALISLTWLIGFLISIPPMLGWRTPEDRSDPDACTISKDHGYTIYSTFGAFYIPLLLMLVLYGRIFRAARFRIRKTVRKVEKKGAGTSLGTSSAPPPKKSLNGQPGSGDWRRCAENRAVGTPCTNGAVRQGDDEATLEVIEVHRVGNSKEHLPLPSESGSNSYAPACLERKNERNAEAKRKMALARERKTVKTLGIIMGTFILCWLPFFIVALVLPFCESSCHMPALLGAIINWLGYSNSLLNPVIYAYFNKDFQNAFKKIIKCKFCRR

Experiment [2] concerns the target T2, Alpha-2C adrenergic receptor (Rattus norvegicus, UniProt P22086).
T2 sequence (P22086 whole entry): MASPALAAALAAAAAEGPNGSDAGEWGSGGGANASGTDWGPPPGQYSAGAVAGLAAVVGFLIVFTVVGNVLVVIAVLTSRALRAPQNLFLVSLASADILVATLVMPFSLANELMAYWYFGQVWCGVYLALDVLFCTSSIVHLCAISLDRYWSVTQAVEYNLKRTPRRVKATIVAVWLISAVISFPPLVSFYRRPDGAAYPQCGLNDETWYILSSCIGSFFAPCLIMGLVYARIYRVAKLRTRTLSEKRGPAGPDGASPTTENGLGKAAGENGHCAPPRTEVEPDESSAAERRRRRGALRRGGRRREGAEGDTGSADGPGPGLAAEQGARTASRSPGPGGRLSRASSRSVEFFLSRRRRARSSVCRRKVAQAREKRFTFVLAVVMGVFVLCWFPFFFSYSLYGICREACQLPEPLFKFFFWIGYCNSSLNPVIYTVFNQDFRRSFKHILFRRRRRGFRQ

One may read the Ki as the dissociation constant of the complex between target and ligand, obtained from inhibition or displacement. On to `O=C1NCN(c2ccccc2)C12CCN(CCCC(c1ccc(F)cc1)c1ccc(F)cc1)CC2`, for which the inhibition constant Ki is 110 nM in experiment [1] and 5000 nM in experiment [2].

As to `O=C1NCCN1CCN1CCC(c2cn(-c3ccc(F)cc3)c3ccc(Cl)cc23)CC1` [1-[2-[4-[5-chloro-1-(4-fluorophenyl)-indol-3-yl]-1-piperidyl]ethyl]imidazolidin-2-one], in experiment [2], the affinity, expressed as Ki, was 1680 nM. That is a single-digit micromolar value.

Regarding `O=C1NCN(c2ccccc2)C12CCN(CC1COc3ccccc3O1)CC2` (stereo not drawn) [8-(2,3-Dihydro-benzo[1,4]dioxin-2-ylmethyl)-1-phenyl-1,3,8-triaza-spiro[4.5]decan-4-one], the affinity in experiment [1] corresponds to a Ki of 0.84 nM.

On to `Cc1nc2n(c(=O)c1CCN1CCC(c3noc4cc(F)ccc34)CC1)CCCC2O` (stereo not drawn) [9-OH-risperidone], for which the Ki in experiment [1] was 380 nM; in experiment [2], 17 nM.

As for `NC(=O)C1(N2CCCCC2)CCN(CCCC(=O)c2ccc(F)cc2)CC1` [CAS_1893-33-0], in experiment [2], the Ki is 680 nM.

In experiment [2], `CN1CC2c3ccccc3Oc3ccc(Cl)cc3C2C1` (stereo not drawn) [NSC_163091] came in with a Ki of 3.7 nM.
